Results as given in US20090105277A1, “AGENT FOR PREVENTING AND/OR TREATING MOVEMENT DISORDER” (KYOWA HAKKO KOGYO CO., LTD., priority 2005, published 2009).
“And” between values parts separate entries of the source, which are not always exact repeats. Equal entries are not always repeated.

Legend:
[1] = system: 6-OHDA treated rats (Parkinson's disease model rat); assay: L-DOPA induced contralateral rotational behavior (antiparkinsonian effect) in the Parkinson's disease model rats; assay type: in vivo; conditions: for number of rotations: oral, total count in 3 hr; for antiparkinsonian activity compared with single administration of L-DOPA 20 mg/kg: L-DOPA 10 mg/kg and test compound combined; for effect on L-DOPA induced rotational behavior, namely antiparkinsonian activity: combined with L-DOPA 10 mg/kg, vs L-DOPA 10 mg/kg + 0.5% MC solution
[2] = system: involuntary movement (e.g., dyskinesia) model rats; assay: Abnormal involuntary movements (AIMs) in involuntary movement (dyskinesia) model rats given repeated L-DOPA; assay type: in vivo, rat; conditions: for AIMs score axial, limb, orolingual, day 1-3 / AIMs score locomotive, day 1-3 / AIMs score axial, limb, orolingual, day 8-10 / AIMs score locomotive, day 8-10: oral, multiple doses; for AIMs score axial, limb, orolingual, post value / AIMs score locomotive, post value: after 3-day drug withdrawal, L-DOPA (20 mg/kg) administered; for onset of dyskinesia: combined administration with L-DOPA 10 mg/kg, compared to single administration of L-DOPA 20 mg/kg
Excerpt: It is known that abnormal involuntary movements (AIMS) are developed by repeated administration of L-DOPA to the Parkinson's disease model rat prepared by the method described in Test Example 1, and the treated rat is used as a model of an involuntary movement such as dyskinesia, or the like. AIMs are classified into 4 kinds: (1) axial AIMs: deflection or torsion of head, neck, and trunk towards the contralateral side of lesioned side of the brain, (2) limb AIMs: movements of mainly forelimb on the contralateral side of the lesioned side of the brain (bending or extension in the perpendicular direction or movements in the horizontal•back and forth directions, opening and closure of the digits etc.); (3) orolingual AIMs: jaw movements, facial distortion, tongue protrusion (accompanying behavior of biting hair, skin of forelimb on the contralateral side of the lesioned side); and (4) locomotive AIMs: contralateral rotational behavior. Of these, locomotive AIMs are induced by dopamine agonists such as bromocriptine causing less dyskinesia, and are not suppressed by a drug having an […] activity such as amantadine. From these, locomotive AIMs have been reported to reflect normal movements improved by an antiparkinsonian effect (Neurobiology of Disease, 2002, vol. 10, p. 165-86; European Journal of Neuroscience, 2002, vol. 15, p. 120-132). […] The frequency of the above-mentioned four kinds of AIMs were scored in 0 to 4 points (0 point: no symptom, 1 point: appearance in less than 50% of observation time, 2 points: appearance in 50% or more of observation time, 3 points: symptom is maintained but prevented by strong sensory stimuli, 4 points: symptom is maintained and is not prevented by strong sensory stimuli). As for axial AIMs and limb AIMs, the amplitude thereof was scored in 1 to 4 points (axial AIMs; 1 point: deflection of head and neck is less than 30 degrees, 2 points: deflection of head and neck is not less than 30 degrees and less than 60 degrees, 3 points: deflection and torsion of head, neck and upper trunk is not less than 60 degrees and less than 90 degrees, 4 points: deflection and torsion of head, neck and trunk is 90 degrees or more and balance is lost, limb AIMs; 1 point: tiny oscillatory movements of limb and distal forelimb, 2 points: low amplitude but visible translocation of both distal and proximal limbs, 3 points: translocation of the whole limb with visible contraction of shoulder muscles, 4 points: strong movements of limb and shoulder at maximul amplitude). SD male rats (6-week-old, CHARLES RIVER LABORATORIES JAPAN, INC.) were used for the test. Parkinson's disease model rats were prepared according to the method described in Test Example 1. After a postoperative period of 6 days or longer, L-DOPA (20 mg/kg/day) was repetitively and orally administered once or twice per day to give a model rat of involuntary movement such as dyskinesia, or the like. […] The rats almost free of AIMs after the lapse of 1 week or longer from repetitive administration of L-DOPA were removed. As the group constitution, an L-DOPA 20 mg/kg and 0.5% MC solution administration group (single administration group) and an L-DOPA 10 mg/kg and test compound administration group (combined administration group) were used. The test compound was used in the same dose as in Test Example 1, whereby the conditions under which both the single administration group and the combined administration group show the same level of antiparkinsonian activity were set. After grouping, multiple doses of L-DOPA 20 mg/kg and 0.5% MC solution, and L-DOPA 10 mg/kg and test compound were orally administered, respectively. […] After the completion of administration, a 3-day drug withdrawal period was taken, and then L-DOPA (20 mg/kg) was administered. The AIMs score at this time was taken as the post value. The AIMs score of each group was expressed as mean±standard deviation of total AIMs score observed in individual rats for one day. […]

[3] = L-DOPA (20 mg/kg) + 0.5% MC solution (single administration)
[4] = group L-DOPA (20 mg/kg) + 0.5% MC solution
[5] = L-DOPA (10 mg/kg) + compound 1 (30 mg/kg)
[6] = group L-DOPA (10 mg/kg) + compound 1 (30 mg/kg)
[7] = L-DOPA (10 mg/kg) + compound 2 (1 mg/kg)
[8] = group L-DOPA (10 mg/kg) + compound 2 (1 mg/kg)

Structure (SMILES): N[C@@H](Cc1ccc(O)c(O)c1)C(=O)O [L-DOPA, reference compound]
- number of rotations ([1]; L-DOPA (10 mg/kg) + 0.5% MC solution (single administration)): 534.3 ± 123.4 and 367.3 ± 140.6
- AIMs score axial, limb, orolingual, day 1-3 [2, 3]: 272.9 ± 25.9 and 271.9 ± 12.6
- AIMs score locomotive, day 1-3 [2, 3]: 16.0 ± 2.1 and 12.4 ± 2.6
- AIMs score axial, limb, orolingual, day 8-10 [2, 3]: 291.7 ± 16.7 and 232.4 ± 26.2
- AIMs score locomotive, day 8-10 [2, 3]: 16.1 ± 2.1 and 13.6 ± 1.7
- AIMs score axial, limb, orolingual, post value [2, 4]: 129.3 ± 14.3 and 139.1 ± 12.6
- AIMs score locomotive, post value [2, 4]: 16.3 ± 2.8 and 15.0 ± 1.4

Structure (SMILES): CC(C)(O)CCN1CCN(c2cc3nc(-c4ccco4)nn3c(N)n2)CC1 [compound 1]
- antiparkinsonian activity compared with single administration of L-DOPA 20 mg/kg [1]: same level
- number of rotations ([1]; L-DOPA (10 mg/kg) + compound 1 (30 mg/kg), mean±standard deviation): 1732.2 ± 305.2
- effect on L-DOPA induced rotational behavior, namely antiparkinsonian activity [1]: significantly enhanced
- AIMs score axial, limb, orolingual, day 1-3 [2, 5]: 78.3 ± 17.2
- AIMs score locomotive, day 1-3 [2, 5]: 16.3 ± 3.5
- AIMs score axial, limb, orolingual, day 8-10 [2, 5]: 105.0 ± 24.1
- AIMs score locomotive, day 8-10 [2, 5]: 16.4 ± 3.9
- onset of dyskinesia [2]: significant suppression
- AIMs score axial, limb, orolingual, post value [2, 6]: 106.9 ± 14.0
- AIMs score locomotive, post value [2, 6]: 17.1 ± 3.1

Structure (SMILES): COCCOc1ccc(N2CCN(CCn3ncc4c3nc(N)n3nc(-c5ccco5)nc43)CC2)cc1 [compound 2]
- antiparkinsonian activity compared with single administration of L-DOPA 20 mg/kg [1]: same level
- number of rotations ([1]; L-DOPA (10 mg/kg) + compound 2 (1 mg/kg), mean±standard deviation): 1543.5 ± 263.2
- effect on L-DOPA induced rotational behavior, namely antiparkinsonian activity [1]: significantly enhanced
- AIMs score axial, limb, orolingual, day 1-3 [2, 7]: 146.4 ± 13.3
- AIMs score locomotive, day 1-3 [2, 7]: 14.8 ± 1.7
- AIMs score axial, limb, orolingual, day 8-10 [2, 7]: 117.5 ± 15.5
- AIMs score locomotive, day 8-10 [2, 7]: 14.4 ± 1.7
- onset of dyskinesia [2]: significant suppression
- AIMs score axial, limb, orolingual, post value [2, 8]: 159.8 ± 24.7
- AIMs score locomotive, post value [2, 8]: 13.1 ± 1.7
